Assay results: ChEMBL document CHEMBL5352441, “Modulation of FLT3-ITD and CDK9 in acute myeloid leukaemia cells by novel proteolysis targeting chimera (PROTAC)” (2022)
Calls of active or inactive are those of the source. The calls are words filed in the database; no cut-off is given here.

Columns and labels:
MOLM-13 = assay: Antiproliferative activity against human MOLM-13 cells harboring FLT3-ITD mutation assessed as cell growth inhibition incubated for 72 hrs by resazurin dye based fluorescence analysis; format: functional
HL-60 = assay: Antiproliferative activity against human HL-60 cells assessed as cell growth inhibition incubated for 72 hrs by resazurin dye based fluorescence analysis; format: functional
U-937 = assay: Antiproliferative activity against human U-937 cells assessed as cell growth inhibition incubated for 72 hrs by resazurin dye based fluorescence analysis; format: functional
[1] = Selectivity index, ratio of GI50 for antiproliferative activity against CRBN-deficient human MV4-11 cells to GI50 for antiproliferative activity against human MV4-11 cells harboring FLT3-ITD mutation; format: functional
[2] = target: Receptor-type tyrosine-protein kinase FLT3 (Homo sapiens) (UniProt P36888); assay: Inhibition of human FLT3 assessed as residual activity at 100 nM relative to control
[3] = target: CDK9/cyclin T1 (Homo sapiens) (UniProt O60563+P50750); assay: Inhibition of human CDK9/Cyclin T1 assessed as residual activity at 100 nM relative to control; format: protein-complex assay
[4] = target: T1, Protein cereblon/Receptor-type tyrosine-protein kinase FLT3 (Homo sapiens) (UniProt P36888+Q96SW2); assay: PROTAC activity at CRBN/FLT3 in human MV4-11 cells harboring FLT3-ITD mutation assessed as induction of protein degradation at […] incubated for 16 hrs by immunoblot analysis; format: cell-based
[5] = target: T1, Protein cereblon/Receptor-type tyrosine-protein kinase FLT3 (Homo sapiens); assay: PROTAC activity at CRBN/FLT3 in CRBN-deficient human MV4-11 cells assessed as induction of protein degradation at 0.004 to 2.5 uM incubated for 16 hrs by immunoblot analysis; format: cell-based; conditions: dose 0.004-2.5 µM
MV4-11 [6] = assay: Induction of apoptosis in human MV4-11 cells assessed as activation of caspase 3 incubated for 16 hrs in presence of Ac-DEVD-AMC by fluorescence microplate reader analysis; format: functional, cell-based; conditions: dose 0.004-2.5 µM
MV4-11 [7] = assay: Induction of cell cycle arrest in human MV4-11 cells assessed as accumulation of cells at G2/M phase at 0.004 uM incubated for 16 hrs by PI staining based flow cytometry analysis (reference value: 10.86%); format: functional
MV4-11 [8] = assay: Induction of cell cycle arrest in human MV4-11 cells assessed as accumulation of cells at subG1 phase at 0.004 uM incubated for 16 hrs by PI staining based flow cytometry analysis (reference value: 10.51%); format: functional
MV4-11 [9] = assay: Induction of cell cycle arrest in human MV4-11 cells assessed as accumulation of cells at G1 phase at 0.5 uM incubated for 16 hrs by PI staining based flow cytometry analysis (reference value: 62.97%); format: functional
MV4-11 [10] = assay: Induction of cell cycle arrest in human MV4-11 cells assessed as accumulation of cells at S phase at 0.5 uM incubated for 16 hrs by PI staining based flow cytometry analysis (reference value: 26.16%); format: functional
MV4-11 [11] = assay: Induction of cell cycle arrest in human MV4-11 cells assessed as accumulation of cells at G2/M phase at 0.5 uM incubated for 16 hrs by PI staining based flow cytometry analysis (reference value: 10.86%); format: functional
MV4-11 [12] = assay: Induction of cell cycle arrest in human MV4-11 cells assessed as accumulation of cells at subG1 phase at 0.5 uM incubated for 16 hrs by PI staining based flow cytometry analysis (reference value: 10.51%); format: functional
MV4-11 [13] = assay: Induction of cell cycle arrest in human MV4-11 cells assessed as accumulation of cells at G1 phase at 2.5 uM incubated for 16 hrs by PI staining based flow cytometry analysis (reference value: 62.97%); format: functional
MV4-11 [14] = assay: Induction of cell cycle arrest in human MV4-11 cells assessed as accumulation of cells at S phase at 2.5 uM incubated for 16 hrs by PI staining based flow cytometry analysis (reference value: 26.16%); format: functional
MV4-11 [15] = assay: Induction of cell cycle arrest in CRBN-deficient human MV4-11 cells assessed as accumulation of cells at S phase at 0.004 uM incubated for 16 hrs by PI staining based flow cytometry analysis (reference value: 36.91%); format: functional
MV4-11 [16] = assay: Induction of cell cycle arrest in CRBN-deficient human MV4-11 cells assessed as accumulation of cells at sub-G1 phase at 0.004 uM incubated for 16 hrs by PI staining based flow cytometry analysis (reference value: 12.52%); format: functional
MV4-11 [17] = assay: Induction of cell cycle arrest in CRBN-deficient human MV4-11 cells assessed as accumulation of cells at G2/M phase at 0.02 uM incubated for 16 hrs by PI staining based flow cytometry analysis (reference value: 9.34%); format: functional
MV4-11 [18] = assay: Induction of cell cycle arrest in CRBN-deficient human MV4-11 cells assessed as accumulation of cells at sub-G1 phase at 0.02 uM incubated for 16 hrs by PI staining based flow cytometry analysis (reference value: 12.52%); format: functional
MV4-11 [19] = assay: Induction of cell cycle arrest in CRBN-deficient human MV4-11 cells assessed as accumulation of cells at G1 phase at 0.1 uM incubated for 16 hrs by PI staining based flow cytometry analysis (reference value: 54.05%); format: functional
MV4-11 [20] = assay: Induction of cell cycle arrest in CRBN-deficient human MV4-11 cells assessed as accumulation of cells at G1 phase at 0.5 uM incubated for 16 hrs by PI staining based flow cytometry analysis (reference value: 54.05%); format: functional
MV4-11 [21] = assay: Induction of cell cycle arrest in CRBN-deficient human MV4-11 cells assessed as accumulation of cells at S phase at 0.5 uM incubated for 16 hrs by PI staining based flow cytometry analysis (reference value: 36.91%); format: functional
MV4-11 [22] = assay: Induction of cell cycle arrest in CRBN-deficient human MV4-11 cells assessed as accumulation of cells at G1 phase at 2.5 uM incubated for 16 hrs by PI staining based flow cytometry analysis (reference value: 54.05%); format: functional
MV4-11 [23] = assay: Downregulation of MEISI gene expression in human MV4-11 cells incubated for 4 hrs by qRT-PCR analysis; format: functional, cell-based; conditions: dose 0.004-2.5 µM
MV4-11 [24] = assay: Downregulation of Bcl-2 gene expression in human MV4-11 cells incubated for 4 hrs by qRT-PCR analysis; format: functional, cell-based; conditions: dose 0.004-2.5 µM
MV4-11 [25] = assay: Downregulation of Myc gene expression in human MV4-11 cells incubated for 4 hrs by qRT-PCR analysis; format: functional, cell-based; conditions: dose 0.004-2.5 µM
[26] = target: Receptor-type tyrosine-protein kinase FLT3 (Homo sapiens) (UniProt P36888); assay: Inhibition of FLT3 autophosphorylation at Y589/591 residue in human MV4-11 cells at 0.1 to 0.5 uM preincubated for 90 mins with 4-hydroxythalidomide followed by compound addition and further incubated for 16 hrs by immunoblot analysis; format: cell-based; conditions: dose 0.1-0.5 µM
[27] = target: T1, Protein cereblon/Receptor-type tyrosine-protein kinase FLT3 (Homo sapiens); assay: PROTAC activity at CRBN/FLT3 in human MV4-11 cells at 0.1 to 0.5 uM preincubated for 90 mins with MG132 followed by compound addition and further incubated for 16 hrs by immunoblot analysis; format: cell-based; conditions: dose 0.1-0.5 µM
[28] = target: Protein cereblon/Cyclin-dependent kinase 9 (Homo sapiens) (UniProt P50750+Q96SW2); assay: PROTAC activity at CRBN/CDK9 in human MV4-11 cells at 0.1 to 0.5 uM preincubated for 90 mins with MG132 followed by compound addition and further incubated for 16 hrs by immunoblot analysis; format: cell-based; conditions: dose 0.1-0.5 µM
Protein cereblon/Cyclin-dependent kinase 9 (Homo sapiens), sequence (P50750 whole entry, looked up): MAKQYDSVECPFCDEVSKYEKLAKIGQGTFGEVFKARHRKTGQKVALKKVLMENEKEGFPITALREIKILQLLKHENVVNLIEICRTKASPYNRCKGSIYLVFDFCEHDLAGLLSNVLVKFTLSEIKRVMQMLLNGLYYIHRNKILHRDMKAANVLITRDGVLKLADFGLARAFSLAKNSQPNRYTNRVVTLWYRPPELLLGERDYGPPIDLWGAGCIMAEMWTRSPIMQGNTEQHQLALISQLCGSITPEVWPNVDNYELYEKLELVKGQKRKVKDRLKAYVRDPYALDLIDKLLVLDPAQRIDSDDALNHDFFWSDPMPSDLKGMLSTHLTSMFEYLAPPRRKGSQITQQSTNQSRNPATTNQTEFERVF
Protein cereblon/Cyclin-dependent kinase 9 (Homo sapiens), sequence (Q96SW2 whole entry, looked up): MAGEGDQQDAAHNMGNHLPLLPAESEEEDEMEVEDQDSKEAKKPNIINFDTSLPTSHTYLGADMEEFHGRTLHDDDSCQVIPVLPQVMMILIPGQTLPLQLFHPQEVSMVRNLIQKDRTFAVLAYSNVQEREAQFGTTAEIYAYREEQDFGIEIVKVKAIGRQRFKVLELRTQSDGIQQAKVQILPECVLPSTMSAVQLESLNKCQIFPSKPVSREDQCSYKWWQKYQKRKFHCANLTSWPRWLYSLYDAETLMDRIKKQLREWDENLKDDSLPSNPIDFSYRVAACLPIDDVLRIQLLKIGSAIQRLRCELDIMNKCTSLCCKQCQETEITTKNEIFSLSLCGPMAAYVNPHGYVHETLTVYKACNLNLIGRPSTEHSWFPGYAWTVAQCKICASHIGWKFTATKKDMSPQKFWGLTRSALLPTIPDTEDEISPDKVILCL

T1 sequence (P36888 27-993 limits assumed): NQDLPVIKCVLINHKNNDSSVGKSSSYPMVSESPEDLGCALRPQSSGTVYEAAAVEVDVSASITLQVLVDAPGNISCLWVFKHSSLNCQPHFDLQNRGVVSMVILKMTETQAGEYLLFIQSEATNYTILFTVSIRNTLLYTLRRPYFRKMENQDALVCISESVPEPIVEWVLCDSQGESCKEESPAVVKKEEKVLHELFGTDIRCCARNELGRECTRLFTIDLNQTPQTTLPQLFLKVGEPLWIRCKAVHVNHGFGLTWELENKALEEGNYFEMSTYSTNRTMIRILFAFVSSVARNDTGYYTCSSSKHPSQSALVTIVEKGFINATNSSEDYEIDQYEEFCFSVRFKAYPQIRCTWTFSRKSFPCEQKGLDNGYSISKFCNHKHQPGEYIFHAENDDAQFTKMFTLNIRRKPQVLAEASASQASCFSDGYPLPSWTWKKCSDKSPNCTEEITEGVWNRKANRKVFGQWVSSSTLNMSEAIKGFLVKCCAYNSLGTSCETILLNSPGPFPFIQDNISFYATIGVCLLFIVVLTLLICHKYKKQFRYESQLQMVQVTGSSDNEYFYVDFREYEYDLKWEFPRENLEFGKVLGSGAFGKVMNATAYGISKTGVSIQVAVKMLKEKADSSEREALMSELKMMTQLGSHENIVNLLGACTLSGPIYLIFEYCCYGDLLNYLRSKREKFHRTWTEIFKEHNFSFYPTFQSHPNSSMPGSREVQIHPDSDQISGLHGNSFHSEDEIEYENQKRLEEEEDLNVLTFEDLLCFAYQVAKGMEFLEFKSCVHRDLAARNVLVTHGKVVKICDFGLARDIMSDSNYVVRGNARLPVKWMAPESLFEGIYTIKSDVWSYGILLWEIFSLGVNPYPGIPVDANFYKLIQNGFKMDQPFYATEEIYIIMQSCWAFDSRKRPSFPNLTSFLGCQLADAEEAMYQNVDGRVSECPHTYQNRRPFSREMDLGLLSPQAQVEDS
T1 sequence (Q96SW2 whole entry partner): as the sequence (Q96SW2 whole entry, looked up) above
Receptor-type tyrosine-protein kinase FLT3 (Homo sapiens), sequence (P36888 whole entry): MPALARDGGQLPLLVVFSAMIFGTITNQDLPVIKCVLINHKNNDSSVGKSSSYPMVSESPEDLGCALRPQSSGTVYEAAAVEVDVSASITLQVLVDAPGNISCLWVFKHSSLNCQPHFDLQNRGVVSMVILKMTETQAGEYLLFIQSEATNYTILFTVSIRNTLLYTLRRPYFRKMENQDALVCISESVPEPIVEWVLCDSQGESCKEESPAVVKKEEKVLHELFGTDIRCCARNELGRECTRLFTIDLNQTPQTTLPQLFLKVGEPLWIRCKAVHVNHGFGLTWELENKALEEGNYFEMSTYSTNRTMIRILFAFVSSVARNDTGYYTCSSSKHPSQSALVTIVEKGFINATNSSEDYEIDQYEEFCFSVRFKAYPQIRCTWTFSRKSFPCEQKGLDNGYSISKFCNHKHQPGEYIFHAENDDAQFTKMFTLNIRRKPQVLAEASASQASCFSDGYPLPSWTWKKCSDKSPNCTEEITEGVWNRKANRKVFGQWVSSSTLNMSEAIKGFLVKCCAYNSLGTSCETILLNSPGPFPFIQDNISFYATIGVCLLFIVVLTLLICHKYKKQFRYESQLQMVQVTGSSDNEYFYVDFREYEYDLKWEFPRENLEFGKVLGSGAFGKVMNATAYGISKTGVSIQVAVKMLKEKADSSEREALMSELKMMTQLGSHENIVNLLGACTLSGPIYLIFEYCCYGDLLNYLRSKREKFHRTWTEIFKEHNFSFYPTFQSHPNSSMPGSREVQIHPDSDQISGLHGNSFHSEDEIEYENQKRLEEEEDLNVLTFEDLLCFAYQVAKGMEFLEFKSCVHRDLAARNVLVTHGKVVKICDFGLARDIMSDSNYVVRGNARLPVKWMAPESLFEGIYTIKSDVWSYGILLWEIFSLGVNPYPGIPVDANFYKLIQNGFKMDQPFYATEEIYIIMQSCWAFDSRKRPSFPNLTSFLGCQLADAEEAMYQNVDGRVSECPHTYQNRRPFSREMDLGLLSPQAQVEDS

For `NC1CCC(Nc2nc(Nc3ccc(N4CCN(CCOCCOCCNC(=O)CNc5cccc6c5C(=O)N(C5CCC(=O)NC5=O)C6=O)CC4)cc3)c3ncn(C4CCCC4)c3n2)CC1` (stereo unspecified), the GI50 (MOLM-13) was 0.042 µM, the GI50 (HL-60) was 6.12 µM and the GI50 (U-937) was 9.51 µM. For the same compound, the RatioGI50 [1] was 2, the Activity [2] was 2% and the Activity [3] was 8%. For the same compound, the Activity [4] was “Active”, the Activity [5] was “inactive” and the Activity (MV4-11 [6]) was “Dose-Dependent Effect”. For the same compound, the Activity (MV4-11 [7]) was 9.03%, the Activity (MV4-11 [8]) was 11.53% and the Activity (MV4-11 [9]) was 74.6%. For the same compound, the Activity (MV4-11 [10]) was 18.55%, the Activity (MV4-11 [11]) was 6.85% and the Activity (MV4-11 [12]) was 58.62%. It also gave an Activity (MV4-11 [13]) of 57.33%, an Activity (MV4-11 [14]) of 34.87% and an Activity (MV4-11 [15]) of 28.88%. The Activity (MV4-11 [16]) was 12.68%, the Activity (MV4-11 [17]) was 6% and the Activity (MV4-11 [18]) was 13.43%. It also gave an Activity (MV4-11 [19]) of 90.54%, an Activity (MV4-11 [20]) of 90.95% and an Activity (MV4-11 [21]) of 5.13%. The Activity (MV4-11 [22]) was 89.4%, the Activity (MV4-11 [23]) was “Dose-Dependent Effect” and the Activity (MV4-11 [24]) was “Dose-Dependent Effect”. For the same compound, the Activity (MV4-11 [25]) was “Dose-Dependent Effect”, the inhibition [26] was “Active” and the Activity [27] was “inactive”. For the same compound, the Activity [28] was “inactive”.
